Measurements taken from patent US8524890B2, “Water-soluble phthalocyanine dye” (National Institute for Materials Science, priority 2009, dated 2013).

How the values were obtained:
Type in all cases: physicochemical
[1] = Solubility and aggregation in pure water
[2] = Solubility and aggregation in aqueous Triton-X100 solution (optical absorption spectra, FIG. 8, FIG. 9)
[3] = Solubility and aggregation in mixed water/ethanol solvent (optical absorption spectra, FIG. 7)

## [Sb(tbpc)(SO4)(HSO4)].4H2O [Compound 2]
[1]
  aggregation in pure water: strong aggregation
[2]; Triton-X100 2% (w/v), absorbance at around 730 nm (FIG. 9)
  concentration up to which the dye remains disaggregated: 20 µM
[2]; aqueous Triton-X100, above certain surfactant concentration (FIG. 8)
  aggregation state above certain concentration of the surfactant: remains dissolved in a disaggregated form
[2]; aqueous, Triton-X100 present
  solubility in the presence of Triton-X100: grows high
[3]; 10% (v/v) ethanol
  aggregation state: substantially aggregated form
[3]; 30% (v/v) ethanol
  aggregation state: a peak ascribable to disaggregated species is clearly observed
[3]; 50% ethanol
  aggregation state: contribution of aggregated species is negligible
[3]; alcohol added
  water solubility on addition of alcohol: greatly improved
